Like-named read-outs stand apart in the source and are kept apart here.
Columns and labels:
[1] = target: T1, cloned human H3 receptors (Homo sapiens, UniProt Q9Y5N1); test: H3 Receptor Binding (Human) Method 1; conditions: receptor stably expressed in SK-N-MC cells, free base forms, average of results
T1 construct: expressed in transfected cells

human H3 receptor [2] = target: T2, human H3 receptor (Homo sapiens, UniProt Q9Y5N1); test: H3 Receptor Binding (Human) Method 2, [125I]-iodoproxyfan competitive radioligand binding; parameters: expressed in transfected cells
cloned rat H3 receptors = target: T3, cloned rat H3 receptors (Rattus norvegicus, UniProt Q9QYN8); test: H3 Receptor Binding (Rat)
T3 construct: expressed in transfected cells
Description: Compounds were tested for binding to cloned rat H3 receptors, stably expressed in SK-N-MC cells.
Compounds were tested in their free base or hydrochloride salt forms.

rat H3 receptor = target: T4, rat H3 receptor (Rattus norvegicus, UniProt Q9QYN8); test: Cyclic AMP Accumulation (rat H3 reporter subline); format: cell-based
T4 construct: expressed in transfected cells; host or cells: SK-N-MC sublines with a reporter construct
Description: (§1) Sublines of SK-N-MC cells were created that expressed a reporter construct and either the human or rat H3 receptor. […] Compounds were tested in their free base or trifluoroacetate salt forms.

human H3 receptor [3] = target: T2, human H3 receptor; test: Cyclic AMP Accumulation (human H3 reporter subline); format: cell-based; parameters: expressed in transfected cells; host or cells: SK-N-MC sublines with a reporter construct; conditions: SK-N-MC subline with reporter construct and human H3 receptor, free base or trifluoroacetate salt, average; for Kb: read-out: Human pA2 (converted)
Description: as §1

[4] = receptor stably expressed in SK-N-MC cells, free base or hydrochloride salt, average of results, read-out: Rat H3 Ki
[5] = SK-N-MC subline with reporter construct and rat H3 receptor, free base or trifluoroacetate salt, average, read-out: Rat pA2 (converted)
[6] = SK-N-MC subline with reporter construct and rat H3 receptor, free base or trifluoroacetate salt, average

T2 sequence (Q9Y5N1 whole entry): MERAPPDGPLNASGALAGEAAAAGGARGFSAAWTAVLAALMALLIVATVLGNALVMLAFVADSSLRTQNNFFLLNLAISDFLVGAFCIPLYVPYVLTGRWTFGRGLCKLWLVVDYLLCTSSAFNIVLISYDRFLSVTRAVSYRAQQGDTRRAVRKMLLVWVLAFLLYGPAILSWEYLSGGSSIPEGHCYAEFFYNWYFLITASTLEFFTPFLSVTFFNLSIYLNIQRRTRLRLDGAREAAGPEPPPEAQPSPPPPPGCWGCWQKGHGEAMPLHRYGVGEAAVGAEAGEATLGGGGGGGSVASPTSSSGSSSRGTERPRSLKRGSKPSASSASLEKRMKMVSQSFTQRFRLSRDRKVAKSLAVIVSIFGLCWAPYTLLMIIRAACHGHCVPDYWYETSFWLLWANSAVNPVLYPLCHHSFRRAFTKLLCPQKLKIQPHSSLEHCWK
T1 sequence (Q9Y5N1 whole entry): as above
T4 sequence (Q9QYN8 whole entry): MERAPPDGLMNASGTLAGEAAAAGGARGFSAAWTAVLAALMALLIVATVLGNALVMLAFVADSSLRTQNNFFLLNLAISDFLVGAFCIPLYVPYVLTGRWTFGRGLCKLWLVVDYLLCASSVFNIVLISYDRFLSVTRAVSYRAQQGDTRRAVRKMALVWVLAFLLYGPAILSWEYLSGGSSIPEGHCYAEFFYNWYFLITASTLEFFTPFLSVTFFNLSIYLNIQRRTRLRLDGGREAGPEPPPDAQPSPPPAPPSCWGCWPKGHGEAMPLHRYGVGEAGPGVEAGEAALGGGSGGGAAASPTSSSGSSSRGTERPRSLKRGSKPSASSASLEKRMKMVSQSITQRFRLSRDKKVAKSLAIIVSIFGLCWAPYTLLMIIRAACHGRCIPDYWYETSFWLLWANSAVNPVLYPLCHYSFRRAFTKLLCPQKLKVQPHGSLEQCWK
T3 sequence (Q9QYN8 whole entry): as above

Compound	Ki (human H3 receptor [2]; read-out: Human H3 Ki) [nM]	Ki (cloned rat H3 receptors; [4]) [nM]	Ki (cloned rat H3 receptors) [nM]	Kb (rat H3 receptor; [5]) [nM]	also measured
CC(C)(C)OC(=O)N1C[C@@H](Oc2cccc(F)c2)C[C@@H]1C(=O)N1CCCN(C2CCC2)CC1 [Example 17, (2R,4S)-2-(4-Cyclobutyl-[1,4]diazepane-1-carbonyl)-4-(3-fluoro-phenoxy)-pyrrolidine-1-carboxylic acid tert-butyl ester]	3				Ki [1]: 3 nM
CC(C)(C)OC(=O)N1C[C@@H](Oc2ccccc2)C[C@@H]1C(=O)N1CCCN(C2CCC2)CC1 [Example 19, (2R,4S)-2-(4-Cyclobutyl-[1,4]diazepane-1-carbonyl)-4-phenoxy-pyrrolidine-1-carboxylic acid tert-butyl ester]	9				Ki [1]: 5 nM
N#Cc1ccc(O[C@@H]2CN[C@@H](C(=O)N3CCCN(C4CCC4)CC3)C2)cc1 [Example 64, (3S,5R)-4-[5-(4-Cyclobutyl-[1,4]diazepane-1-carbonyl)-pyrrolidin-3-yloxy]-benzonitrile]			466	12.9	
O=C([C@H]1C[C@H](Oc2cccc(F)c2)CN1)N1CCCN(C2CCC2)CC1 [Example 65, (2R,4S)-4-(3-Fluoro-phenoxy)-2-(4-cyclobutyl-[1,4]diazepane-1-carbonyl)-pyrrolidine]			12	7.41	
O=C([C@H]1C[C@H](Oc2ccccc2)CN1)N1CCCN(C2CCC2)CC1 [Example 67, (2R,4S)-4-Phenoxy-2-(4-cyclobutyl-[1,4]diazepane-1-carbonyl)-pyrrolidine]		502		57.5	Ki (human H3 receptor [2]): 5 nM; Human pA2 (human H3 receptor [3]): 8.09
O=C([C@H]1C[C@H](Oc2cccc(Cl)c2)CN1)N1CCCN(C2CCC2)CC1 [Example 68, (2R,4S)-4-(3-chloro-phenoxy)-2-(4-cyclobutyl-[1,4]diazepane-1-carbonyl)-pyrrolidine]					Rat pA2 (rat H3 receptor; [6]): 8.59
O=C([C@H]1C[C@H](Oc2ccc(Cl)cc2)CN1)N1CCCN(C2CCC2)CC1 [Example 69, (2R,4S)-4-(4-Chloro-phenoxy)-2-(4-cyclobutyl-[1,4]diazepane-1-carbonyl)-pyrrolidine]		18			Rat pA2 (rat H3 receptor; [6]): 8.30
CSc1ccc(O[C@@H]2CN[C@@H](C(=O)N3CCCN(C4CCC4)CC3)C2)cc1 [Example 71, (2R,4S)-4-(4-Methylsulfanyl-Phenoxy)-2-(4-cyclobutyl-[1,4]diazepane-1-carbonyl)-pyrrolidine]			54	10.7	Ki (human H3 receptor [2]): 3 nM; Kb (human H3 receptor [3]): 2.04 nM
Cc1cc(O[C@@H]2CN[C@@H](C(=O)N3CCCN(C4CCC4)CC3)C2)ccc1Cl [Example 72, (2R,4S)-4-(4-Chloro-3-methyl-phenoxy)-2-(4-cyclobutyl-[1,4]diazepane-1-carbonyl)-pyrrolidine]		36		4.9	Ki (human H3 receptor [2]): 3 nM; Kb (human H3 receptor [3]): 1.02 nM
O=C([C@H]1C[C@H](Oc2ccc(F)cc2)CN1)N1CCCN(C2CCCC2)CC1 [Example 82, (2R,4S)-2-(4-Cyclopentyl-[1,4]diazepane-1-carbonyl)-4-(4-fluoro-phenoxy)-pyrrolidine]		18			Rat pA2 (rat H3 receptor; [6]): 8.21
N#Cc1ccc(O[C@@H]2CN[C@@H](C(=O)N3CCCN(C4CCCC4)CC3)C2)cc1 [Example 83, (2R,4S)-4-(4-Cyano-phenoxy)-2-(4-cyclopentyl-[1,4]diazepane-1-carbonyl)-pyrrolidine]			16		Rat pA2 (rat H3 receptor; [6]): 8.51
N#Cc1ccc(O[C@H]2CN[C@H](C(=O)N3CCCN(C4CCC4)CC3)C2)cc1 [Example 94, (2S,4R)-4-(4-Cyano-phenoxy)-2-(4-cyclobutyl-[1,4]diazepane-1-carbonyl)-pyrrolidine]			150	110	
CSc1ccc(O[C@H]2CN[C@H](C(=O)N3CCCN(C4CCC4)CC3)C2)cc1 [Example 96, (2S,4R)-2-(4-Cyclobutyl-[1,4]diazepane-1-carbonyl)-4-(4-methylsulfanyl-phenoxy)-pyrrolidine]			84	112	Ki [1]: 11 nM; Kb (human H3 receptor [3]): 20.9 nM
CN1C[C@@H](Oc2ccc(F)cc2)C[C@@H]1C(=O)N1CCCN(C2CCC2)CC1 [Example 110, (2R,4S)-1-Methyl-2-(4-cyclobutyl-[1,4]diazepane-1-carbonyl)-4-(4-fluoro-phenoxy)-pyrrolidine]			477		Kb (rat H3 receptor): 16.6 nM
CC(=O)N1C[C@@H](Oc2cccc(F)c2)C[C@@H]1C(=O)N1CCCN(C2CCC2)CC1 [Example 131, (2R,4S)-1-[2-(4-Cyclobutyl-[1,4]diazepane-1-carbonyl)-4-(3-fluoro-phenoxy)-pyrrolidin-1-yl]-ethanone]			17		Ki (human H3 receptor [2]): 2 nM; Rat pA2 (rat H3 receptor; [6]): 8.22

More lines, main results first:

Ki (human H3 receptor [2]; read-out: Human H3 Ki) [nM]	Ki (cloned rat H3 receptors; [4]) [nM]	Compound	Ki (cloned rat H3 receptors) [nM]	Kb (rat H3 receptor; [5]) [nM]	also measured
4		CC(C)(C)OC(=O)N1C[C@@H](Oc2cccc(Cl)c2)C[C@@H]1C(=O)N1CCCN(C2CCC2)CC1 [Example 20, (2R,4S)-4-(3-Chloro-phenoxy)-2-(4-cyclobutyl-[1,4]diazepane-1-carbonyl)-pyrrolidine-1-carboxylic acid tert-butyl ester]			Ki [1]: 12 nM
3		CC(C)(C)OC(=O)N1C[C@@H](Oc2ccc(Cl)cc2)C[C@@H]1C(=O)N1CCCN(C2CCC2)CC1 [Example 21, (2R,4S)-4-(4-Chloro-phenoxy)-2-(4-cyclobutyl-[1,4]diazepane-1-carbonyl)-pyrrolidine-1-carboxylic acid tert-butyl ester]			Ki [1]: 12 nM
5	232	Cc1cccc(O[C@H]2C[C@H](C(=O)N3CCCN(C4CCC4)CC3)N(C(=O)OC(C)(C)C)C2)c1 [Example 27, (2R,4S)-2-(4-Cyclobutyl-[1,4]diazepane-1-carbonyl)-4-m-tolyloxy-pyrrolidine-1-carboxylic acid tert-butyl ester]			
	130	O=C([C@@H]1C[C@@H](Oc2cccc(Cl)c2)CN1)N1CCCN(C2CCC2)CC1 [Example 88, (2S,4R)-4-(3-Chloro-phenoxy)-2-(4-cyclobutyl-[1,4]diazepane-1-carbonyl)-pyrrolidine]			
5		O=C([C@H]1C[C@H](Oc2ccsc2)CN1)N1CCCN(C2CCC2)CC1 [Example 102, (2R,4S)-2-(4-Cyclobutyl-[1,4]diazepane-1-carbonyl)-4-(thiophen-3-yloxy)-pyrrolidine]		21.9	Human pA2 (human H3 receptor [3]): 8.65
	30	CC(=O)N1C[C@@H](Oc2ccc(F)cc2)C[C@@H]1C(=O)N1CCCN(C2CCC2)CC1 [Example 120, (2R,4S)-1-[2-(4-Cyclobutyl-[1,4]diazepane-1-carbonyl)-4-(4-fluoro-phenoxy)-pyrrolidin-1-yl]-ethanone]		1.62	
2	15	CSc1ccc(O[C@H]2C[C@H](C(=O)N3CCCN(C4CCC4)CC3)N(C(C)=O)C2)cc1 [Example 121, (2R,4S)-1-[2-(4-Cyclobutyl-[1,4]diazepane-1-carbonyl)-4-(4-methylsulfanyl-phenoxy)-pyrrolidin-1-yl]-ethanone]			
1	12	CC(=O)N1C[C@@H](Oc2ccc(Cl)c(C)c2)C[C@@H]1C(=O)N1CCCN(C2CCC2)CC1 [Example 122, (2R,4S)-1-[4-(4-Chloro-3-methyl-phenoxy)-2-(4-cyclobutyl-[1,4]diazepane-1-carbonyl)-pyrrolidin-1-yl]-ethanone]			
3		CC(=O)N1C[C@@H](Oc2ccsc2)C[C@@H]1C(=O)N1CCCN(C2CCC2)CC1 [Example 134, (2R,4S)-1-[2-(4-Cyclobutyl-[1,4]diazepane-1-carbonyl)-4-(thiophen-3-yloxy)-pyrrolidin-1-yl]-ethanone]		8.71	Human pA2 (human H3 receptor [3]): 9.28
4	8	O=C([C@H]1C[C@H](OCc2cccc(F)c2)CN1)N1CCCN(C2CCC2)CC1 [Example 152, (2R,4S)-2-(4-Cyclobutyl-[1,4]diazepane-1-carbonyl)-4-(3-fluoro-benzyloxy)-pyrrolidine]			
3	13	O=C([C@H]1C[C@H](OCc2ccc(F)cc2)CN1)N1CCCN(C2CCC2)CC1 [Example 153, (2R,4S)-2-(4-Cyclobutyl-[1,4]diazepane-1-carbonyl)-4-(4-fluoro-benzyloxy)-pyrrolidine]			
